In US20250009742A1 (priority 2021, published 2025):
Where two headings read alike, the source gives them in different places.

Tested on: intracellular HBV DNA
Assay: Real-time PCR for intracellular HBV DNA in HepAD38 cells
Assay type: cell-based
Details: 65 hours treatment
Method: HepAD38 cells were cultured in DMEM medium (Welgene) supplemented with 200 unit/mL penicillin, 200 μg/mL streptomycin, and 10% FBS. During maintenance and passage, the cells were cultured together with 0.4 μg/mL tetracycline. Two days before the treatment with compounds for inducing HBV replication was started, the medium was replaced with a tetracycline-free complete growth medium. […]
HepAD38 cells were treated with a compound for 65 hours and then recovered, and intracellular HBV DNA was extracted therefrom according to the protocol in the DNeasy Blood & Tissue Kit (Qiagen). The primers and probes used to quantify HBV DNA were 5′-[…]-3′, 5′-[…]-3′, and 5′-/56-FAM/TGT CCT GGT/ZEN/TAT CGC TGG ATG TGT CT/3IABkFQ/-3′. The HBV DNA was amplified by real-time PCR assay using LightCycler 480 (Roche) (J. Virol., 2018, 92(16):e00339-18). All of the processes were confirmed in duplicate.

[1] = Hepatitis B virus, HePAD38, 65 h

Molecule | IC50 [1] | other results
CC12CC(N(Cc3cc(C(F)(F)F)[nH]n3)C(=O)Nc3ccc(F)c(Cl)c3)(C1)C2 [Example 27, 3-(3-chloro-4-fluorophenyl)-1-(3-methylbicyclo[1.1.1]pentan-1-yl)-1-((5-(trifluoromethyl)-1H-pyrazol-3-yl)methyl)urea] | 0.16 µM | –
COc1ncc(N(Cc2cc(C(F)(F)F)[nH]n2)C(=O)Nc2ccc(Cl)c(C#N)n2)cn1 [Example 8, 3-(5-chloro-6-cyanopyridin-2-yl)-1-(2-methoxypyrimidin-5-yl)-1-((5-(trifluoromethyl)-1H-pyrazol-3-yl)methyl)urea] | > 1.1 µM | –
COc1ncc(N(Cc2cc(C(F)(F)F)[nH]n2)C(=O)Nc2ccc(Cl)nc2Cl)cn1 [Example 165, 3-(2,6-dichloropyridin-3-yl)-1-(2-methoxypyrimidin-5-yl)-1-((5-(trifluoromethyl)-1H-pyrazol-3-yl)methyl)urea] | > 1.1 µM | –
COc1ncc(N(Cc2n[nH]c(C(F)F)c2CC(C)(C)O)C(=O)Nc2ccc(F)c(C(F)F)c2)cn1 [Example 208, 1-((5-(difluoromethyl)-4-(2-hydroxy-2-methylpropyl)-1H-pyrazol-3-yl)methyl)-3-(3-(difluoromethyl)-4-fluorophenyl)-1-(2-methoxypyrimidin-5-yl)urea] | > 1.1 µM | –
COc1ncc(N(Cc2cc(C(F)F)[nH]n2)C(=O)Nc2cc(C)c(F)c(Cl)c2)cn1 [Example 139, 3-(3-chloro-4-fluoro-5-methylphenyl)-1-((5-(difluoromethyl)-1H-pyrazol-3-yl)methyl)-1-(2-methoxypyrimidin-5-yl)urea] | 0.04 µM | –
COc1ncc(N(Cc2cc(C(F)(F)F)[nH]n2)C(=O)Nc2ccc(F)c(Cl)n2)cn1 [Example 106, 3-(6-chloro-5-fluoropyridin-2-yl)-1-(2-methoxypyrimidin-5-yl)-1-((5-(trifluoromethyl)-1H-pyrazol-3-yl)methyl)urea] | 0.12 µM | –
COc1ncc(N(Cc2cc(C(F)(F)F)[nH]n2)C(=O)Nc2ccc(F)c(C(F)F)n2)cn1 [Example 204, 3-(6-(difluoromethyl)-5-fluoropyridin-2-yl)-1-(2-methoxypyrimidin-5-yl)-1-((5-(trifluoromethyl)-1H-pyrazol-3-yl)methyl)urea] | – | IC50: 0.036 µM
COc1ncc(N(Cc2n[nH]c(C(F)(F)F)c2CC(C)(C)O)C(=O)Nc2ccc(F)c(Cl)c2)cn1 [Example 101, 3-(3-chloro-4-fluorophenyl)-1-((4-(2-hydroxy-2-methylpropyl)-5-(trifluoromethyl)-1H-pyrazol-3-yl)methyl)-1-(2-methoxypyrimidin-5-yl)urea] | > 1.1 µM | –
COc1ncc(N(Cc2cc(C(F)(F)F)[nH]n2)C(=O)Nc2ccc(C#N)c(C#N)c2)cn1 [Example 167, 3-(3,4-dicyanophenyl)-1-(2-methoxypyrimidin-5-yl)-1-((5-(trifluoromethyl)-1H-pyrazol-3-yl)methyl)urea] | 0.19 µM | –
COc1ncc(N(Cc2cc(C(F)(F)F)[nH]n2)C(=O)NC23CC(F)(C2)C3)cn1 [Example 185, 3-(3-fluorobicyclo[1.1.1]pentan-1-yl)-1-(2-methoxypyrimidin-5-yl)-1-((5-(trifluoromethyl)-1H-pyrazol-3-yl)methyl)urea] | > 1.1 µM | –
COc1ncc(N(Cc2cc(C(F)(F)F)[nH]n2)C(=O)NC23CC(C2)C3)cn1 [Example 1, 3-(bicyclo[1.1.1]pentan-1-yl)-1-(2-methoxypyrimidin-5-yl)-1-((5-(trifluoromethyl)-1H-pyrazol-3-yl)methyl)urea] | > 1.1 µM | –
COc1ccc(N(Cc2n[nH]c(C(F)(F)F)c2CCO)C(=O)Nc2ccc(F)c(Cl)c2)cn1 [Example 86, 3-(3-chloro-4-fluorophenyl)-1-((4-(2-hydroxyethyl)-5-(trifluoromethyl)-1H-pyrazol-3-yl)methyl)-1-(6-methoxypyridin-3-yl)urea] | 0.016 µM | –
3-(6-fluoropyridin-3-yl)-1-(2-methoxypyrimidin-5-yl)-1-((5-(trifluoromethyl)-1H-pyrazol-3-yl)methyl)urea [Example 184] | – | IC50 (read-out: IC50): 0.25 µM
O=C(Nc1ccc(F)c(Cl)c1)N(Cc1cc(C(F)(F)F)[nH]n1)C12CC(C1)C2 [Example 137, 1-(bicyclo[1.1.1]pentan-1-yl)-3-(3-chloro-4-fluorophenyl)-1-((5-(trifluoromethyl)-1H-pyrazol-3-yl)methyl)urea] | 0.37 µM | –
N#Cc1ccc(N(Cc2cc(C(F)F)[nH]n2)C(=O)Nc2ccc(F)c(Cl)c2)cn1 [Example 126, 3-(3-chloro-4-fluorophenyl)-1-(6-cyanopyridin-3-yl)-1-((5-(difluoromethyl)-1H-pyrazol-3-yl)methyl)urea] | 0.54 µM | –
CC(=O)c1cc(N(Cc2n[nH]c3c2CCOC3)C(=O)Nc2ccc(F)c(Cl)c2)ccn1 [Example 22, 1-(2-acetylpyridin-4-yl)-3-(3-chloro-4-fluorophenyl)-1-((1,4,5,7-tetrahydropyrano[3,4-c]pyrazol-3-yl)methyl)urea] | > 1.1 µM | –

Molecule | IC50 [1] | other results
COc1ncc(NC(=O)N(Cc2cc(C(F)(F)F)[nH]n2)c2cnc(OC)nc2)cn1 [Example 216, 1,3-bis(2-methoxypyrimidin-5-yl)-1-((5-(trifluoromethyl)-1H-pyrazol-3-yl)methyl)urea] | > 1.1 µM | –
COc1ncc(N(Cc2cc(C(F)(F)F)[nH]n2)C(=O)Nc2nc(F)c(F)cc2F)cn1 [Example 221, 1-(2-methoxypyrimidin-5-yl)-1-((5-(trifluoromethyl)-1H-pyrazol-3-yl)methyl)-3-(3,5,6-trifluoropyridin-2-yl)urea] | > 1.1 µM | –
COc1ncc(N(Cc2cc(C(F)F)[nH]n2)C(=O)Nc2cc(F)c(F)c(Cl)c2)cn1 [Example 12, 3-(3-chloro-4,5-difluorophenyl)-1-((5-(difluoromethyl)-1H-pyrazol-3-yl)methyl)-1-(2-methoxypyrimidin-5-yl)urea] | 0.045 µM | –
CCOCCc1c(CN(C(=O)Nc2ccc(F)c(Cl)c2)c2ccc(OC)nc2)n[nH]c1C(F)(F)F [Example 85, 3-(3-chloro-4-fluorophenyl)-1-((4-(2-ethoxyethyl)-5-(trifluoromethyl)-1H-pyrazol-3-yl)methyl)-1-(6-methoxypyridin-3-yl)urea] | 0.23 µM | –
COc1ncc(N(Cc2cc(C(F)(F)F)[nH]n2)C(=O)Nc2cccc(Cl)n2)cn1 [Example 5, 3-(6-chloropyridin-2-yl)-1-(2-methoxypyrimidin-5-yl)-1-((5-(trifluoromethyl)-1H-pyrazol-3-yl)methyl)urea] | 0.38 µM | –
COc1ncc(N(Cc2cc(C(F)(F)F)[nH]n2)C(=O)Nc2cnc(Cl)nc2)cn1 [Example 143, 3-(2-chloropyrimidin-5-yl)-1-(2-methoxypyrimidin-5-yl)-1-((5-(trifluoromethyl)-1H-pyrazol-3-yl)methyl)urea] | > 1.1 µM | –
COc1ccc(N(Cc2cc(C(F)(F)F)[nH]n2)C(=O)Nc2ccc(F)c(C(F)F)c2)nn1 [Example 200, 3-(3-(difluoromethyl)-4-fluorophenyl)-1-(6-methoxypyridazin-3-yl)-1-((5-(trifluoromethyl)-1H-pyrazol-3-yl)methyl)urea] | > 1.1 µM | –
COc1ncc(N(Cc2cc(C#N)[nH]n2)C(=O)Nc2ccc(F)c(Cl)c2)cn1 [Example 104, 3-(3-chloro-4-fluorophenyl)-1-((5-cyano-1H-pyrazol-3-yl)methyl)-1-(2-methoxypyrimidin-5-yl)urea] | 0.027 µM | –
COc1ncc(N(Cc2cc(C(F)F)[nH]n2)C(=O)Nc2cc(F)c(F)c(C#N)c2)cn1 [Example 150, 3-(3-cyano-4,5-difluorophenyl)-1-((5-(difluoromethyl)-1H-pyrazol-3-yl)methyl)-1-(2-methoxypyrimidin-5-yl)urea] | > 1.1 µM | –
COc1ncc(N(Cc2cc(C#N)[nH]n2)C(=O)Nc2ccc(F)c(C#N)c2)cn1 [Example 157, 1-((5-cyano-1H-pyrazol-3-yl)methyl)-3-(3-cyano-4-fluorophenyl)-1-(2-methoxypyrimidin-5-yl)urea] | 0.066 µM | –
COc1ncc(N(Cc2cc(C(F)(F)F)[nH]n2)C(=O)Nc2ccnc(C(F)F)c2F)cn1 [Example 211, 3-(2-(difluoromethyl)-3-fluoropyridin-4-yl)-1-(2-methoxypyrimidin-5-yl)-1-((5-(trifluoromethyl)-1H-pyrazol-3-yl)methyl)urea] | 0.031 µM | –
COc1ncc(N(Cc2cc(C(F)(F)F)[nH]n2)C(=O)Nc2ccnc(C(F)F)c2)cn1 [Example 175, 3-(2-(difluoromethyl)pyridin-4-yl)-1-(2-methoxypyrimidin-5-yl)-1-((5-(trifluoromethyl)-1H-pyrazol-3-yl)methyl)urea] | 0.041 µM | –
COc1ncc(N(Cc2cc(C#N)[nH]n2)C(=O)Nc2ccc(F)c(C(F)F)c2)cn1 [Example 209, 1-((5-cyano-1H-pyrazol-3-yl)methyl)-3-(3-(difluoromethyl)-4-fluorophenyl)-1-(2-methoxypyrimidin-5-yl)urea] | 0.016 µM | –
COc1ncc(N(Cc2cc(C(F)(F)F)[nH]n2)C(=O)Nc2nc(F)ccc2F)cn1 [Example 169, 3-(3,6-difluoropyridin-2-yl)-1-(2-methoxypyrimidin-5-yl)-1-((5-(trifluoromethyl)-1H-pyrazol-3-yl)methyl)urea] | > 1.1 µM | –
COc1ncc(N(Cc2cc(C(F)F)[nH]n2)C(=O)Nc2cccc(C#N)c2)cn1 [Example 147, 3-(3-cyanophenyl)-1-((5-(difluoromethyl)-1H-pyrazol-3-yl)methyl)-1-(2-methoxypyrimidin-5-yl)urea] | 0.08 µM | –
COc1ncc(N(Cc2cc(C(F)(F)F)[nH]n2)C(=O)Nc2ccc(F)c(C#N)n2)cn1 [Example 160, 3-(6-cyano-5-fluoropyridin-2-yl)-1-(2-methoxypyrimidin-5-yl)-1-((5-(trifluoromethyl)-1H-pyrazol-3-yl)methyl)urea] | 0.43 µM | –
